Assays:
Ras farnesyl transferase [1] = molecular target: T1, Ras farnesyl transferase (Homo sapiens, UniProt P49354+P49356); test: In vitro inhibitory activity for Ras farnesyl transferase, H-Ras substrate; type: biochemical; details: recombinant farnesyl transferase 4.5 nM, Ras substrate protein 1.5 μM, tritium-farnesylpyrophosphate 0.15 μM, 30 minutes at 37° C.; read-out: H-Ras IC50
T1 construct: made in house
Procedure: In the present experiment, Ras farnesyl transferase produced by genetic recombination techniques according to the improved Pompliano's method (Pompliano et al., Biochemistry, 1992, 31, 3800) was used, and Ras substrate (Ras-CVLS) protein described in Korean Patent Appln. No. 97-14409 was used after it has been purified according to the known method (see, Chung et al., Biochimica et Biophysica Acta, 1992, 278, 1129).
The enzyme reaction was performed in 50 μl of 50 mM Sodium HEPES buffer solution containing 25 mM of potassium chloride, 25 mM of magnesium chloride, 10 mM of DTT and 50 μM of zinc chloride. 1.5 μM of Ras substrate protein, 0.15 μM of tritium-farnesylpyrophosphate and 4.5 nM of farnesyl transferase were used.
More specifically, in the initial step, farnesyl transferase was added to the above buffer solution, reaction was maintained for 30 minutes at 37° C. and then the reaction was stopped by adding 1 ml of ethanol solution containing 1M HCl. The formed precipitates were adsorbed to GF/B filter using Hopper harvestor(Hopper #FH 225V) for filter-binding, washed with ethanol, and then radioactivity of the dried filter was measured using LKB β counter. Enzyme titer was measured in the unsaturated state of substrate where the concentrations of Ras substrate protein and farnesyl transferase have quantitative relationship. The compound according to the present invention dissolved in dimethyl sulfoxide (DMSO) was added to the reaction solution in an amount of less than 5% of the total reaction solution, and then the enzyme inhibitory activity thereof was measured. The enzyme inhibitory activity was represented by percentage of the amount of farnesyl incorporated into the Ras substrate protein in the presence of the test compound to that in the absence of the test compound. IC50 of the test compound was defined as the concentration at which 50% of the enzyme activity was inhibited.

Ras farnesyl transferase [2] = molecular target: T2, Ras farnesyl transferase (Rattus norvegicus, UniProt Q02293+Q04631); test: In vivo (cellular) inhibitory activity for Ras farnesyl transferase, Rat2 cell line transformed with fused protein of H-Ras substituted with polybasic lysine domain at C-terminus of K-Ras; type: cell-based; details: Rat2 cell line transformed with H-Ras fused with polybasic lysine domain of K-Ras C-terminus; concentration inhibiting 50% of farnesyl bonding; read-out: K-Ras CIC50
T2 construct: endogenous in cells; host or cells: Rat2 fibroblasts transformed with H-Ras or with an H-Ras/K-Ras C-terminus fusion
Procedure: (§1) In the present experiment, Rat2 cell line which expresses C-Harvey-Ras protein having transforming activity and Rat2 cell line (Korean patent application No. 97-14409) which is transformed with fused protein of H-Ras substituted with polybasic lysine domain at C-terminus of K-Ras were used. The experiment was performed by the modified Declue's method (Declue. J. E. et al., Cancer Research, 1991, 51, 712). Hereinafter, the experimental method will be described in more detail.
(§2) 3×10^5 cells of transformed Rat2 fibroblast cell line were sprayed on 60 mm cell cultivation dish and cultivated for 48 hours in a cell incubator at 37° C. and after 50% or more of density was reached, it was treated with the test compounds. The compound according to the present invention dissolved in dimethylsulfoxide (DMSO) was used. 1% concentration of dimethylsulfoxide was used in both control and test groups. After 4 hours from the treatment with the compound, methionine labeled with 150 μCi of radioactive isotope [^35S] per 1 ml of medium was added and after cultivating for 20 hours, the cells were, washed with physiological saline water. The cells were lysed using 1 ml of cold cell lysis buffer solution (50 mM of Sodium HEPES buffer solution containing 5mM of magnesium chloride, 1 mM of DTT, 1% NP 40, 1 mM of EDTA, 1 mM of PMSF, 2 μM of leupeptin, 2 μM of pepstatin A and 2 μM of antipain) and the supernatant wherein the cells were lysed was obtained by high-velocity centrifugation of 12,000 g×5 minutes. The amount of radioisotope in the supernatant was measured and standardized to obtain a quantitative result in immunoprecipitation reaction and then, Y13-259, a monoclonal antibody specifically binding to Ras protein (Furth, M. E. et al., J. Virol, 1982, 43, 294) was added and reacted for 15 hours at 4° C. Protein A(combined with goat anti-murine immunoglobulin antibody)-agarose suspension was added to the solution and reacted for 1 hour at 4° C. and then, to remove the unspecific binding product, immunoprecipitates were washed with a buffer solution (50 mM Tris chloride buffer solution containing 50 mM of sodium chloride, 0.5% of sodium dioxycolate, 0.5% of NP 40 and 0.1% of SDS). The precipitates were added to a buffer solution for electrophoresis and boiled and then, electrophoresis was performed using 13.5% of SDS polyacrylamide gel. After electrophoresis, the gel was fixed and dried. Then, the gel was exposed to X-ray film, developed printed. From the result of the experiment, intensities of band of in combined with or without farnesyl of Ras protein were measured, the concentration of the test compound inhibiting 50% of farnesyl bonding was defined as […], an in vivo Ras farnesyl transferase inhibitory activity.

Ras farnesyl transferase [3] = molecular target: T2, Ras farnesyl transferase; test: In vivo (cellular) inhibitory activity for Ras farnesyl transferase, Rat2 cell line which expresses C-Harvey-Ras protein; type: cell-based; details: Rat2 cell line expressing C-Harvey-Ras; concentration inhibiting 50% of farnesyl bonding of Ras protein; read-out: H-Ras CIC50
Procedure: as §1, §2

Ras farnesyl transferase [4] = molecular target: T1, Ras farnesyl transferase; test: In vitro inhibitory activity for Ras farnesyl transferase, K-Ras substrate; type: biochemical; details: in vitro farnesyl transferase assay, K-Ras; read-out: K-Ras IC50

IC50 (Ras farnesyl transferase [1]) [nM] | IC50 (Ras farnesyl transferase [2]) [nM] | IC50 (Ras farnesyl transferase [3]) [nM] | IC50 (Ras farnesyl transferase [4]) [nM] | Molecule
4 | 10000 to 50000 | 25 | 8 | COCCN(C)C(=O)c1cn(Cc2cncn2C(C)c2ccccc2)cc1-c1cccc2ccccc12 (stereo in doubt) [Compound 8, 3-[N-(2-Methoxyethyl)-N-methyl]carbamoyl-1-[1-((R)-α-methylbenzyl)-1H-imidazol-5-ylmethyl]-4-(naphthalen-1-yl)-1H-pyrrole]
5 | 10000 to 50000 | 25 | 6.6 | CC(c1ccccc1)n1cncc1Cn1cc(C(=O)N2CCOCC2)c(-c2cccc3ccccc23)c1 (stereo in doubt) [Compound 9, 1-[1-((R)-α-Methylbenzyl)-1H-imidazol-5-ylmethyl]-3-(morpholin-4-yl)carbonyl-4-(naphthalen-1-yl)-1H-pyrrole]
0.85 | 10000 to 50000 | 12.5 | 5 | CC(c1ccccc1)n1cncc1Cn1cc(C(=O)N2CCN(C)CC2)c(-c2cccc3ccccc23)c1 (stereo in doubt) [Compound 10, 1-[1-((R)-α-Methylbenzyl)-1H-imidazol-5-ylmethyl]-3-(4-methylpiperazin-1-yl)carbonyl-4-(naphthalen-1-yl)-1H-pyrrole]
1800 | > 20000 | > 1000 | 100 to 10000 | COC(=O)C(CCSC)NC(=O)c1cn(Cc2cncn2Cc2ccc(C#N)cc2)cc1-c1cccc2ccccc12 (stereo in doubt) [Compound 100, (S)-1-[1-(4-Cyanobenzyl)-1H-imidazol-5-yl]methyl-3-[N-(1-methoxycarbonyl-3-methylthio)propyl]carbamoyl-4-(naphthalen-1-yl)-1H-pyrrole]
0.85 | 10000 to 50000 | 25 | 2 | O=C(c1cn(Cc2cncn2Cc2ccc3c(c2)OCO3)cc1-c1cccc2ccccc12)N1CCOCC1 [Compound 2, 1-[1-(3,4-Methylenedioxybenzyl)-1H-imidazol-5-ylmethyl]-3-(morpholin-4-yl)carbonyl-4-(naphthalen-1-yl)-1H-pyrrole]
47 | 10000 to 100000 | 100 to 1000 | 750 | CN(C)CCN(C)C(=O)c1cn(Cc2cncn2Cc2ccc3c(c2)OCO3)cc1-c1cccc2ccccc12 [Compound 4, 3-{N-[2-(N,N-Dimethylamino)ethyl]-N-methyl}carbamoyl-1-[1-(3,4-methylendioxybenzyl)-1H-imidazol-5-ylmethyl]-4-(naphthalen-1-yl)-1H-pyrrole]
3.7 | 10000 to 50000 | 25 | 8.5 | COCCN(C)C(=O)c1cn(Cc2cncn2Cc2cccc3ccccc23)cc1-c1cccc2ccccc12 [Compound 5]
1 | 10000 to 50000 | 25 | 2 | O=C(c1cn(Cc2cncn2Cc2cccc3ccccc23)cc1-c1cccc2ccccc12)N1CCOCC1 [Compound 6]
0.6 | 10000 to 50000 | 25 | 2.2 | CN1CCN(C(=O)c2cn(Cc3cncn3Cc3cccc4ccccc34)cc2-c2cccc3ccccc23)CC1 [Compound 7, 3-(4-Methylpiperazin-1-yl)carbonyl-4-(naphthalen-1-yl)-1-[1-(naphthalen-1-ylmethyl)-1H-imidazol-5-ylmethyl]-1H-pyrrole]
4 | 10000 to 50000 | 25 | 8 | COCCN(C)C(=O)c1cn(Cc2cncn2[C@@H](C)c2ccccc2)cc1-c1cccc2ccccc12 [Compound 11]
5 | 10000 to 50000 | 25 | 6.6 | C[C@@H](c1ccccc1)n1cncc1Cn1cc(C(=O)N2CCOCC2)c(-c2cccc3ccccc23)c1 [Compound 12, 1-[1-((S)-α-Methylbenzyl)-1H-imidazol-5-ylmethyl]-3-(morpholin-4-yl)carbonyl-4-(naphthalen-1-yl)-1H-pyrrole]
– | > 50000 | 100 | – | Cn1cncc1Cn1cc(C(=O)N2CCOCC2)c(-c2cccc3ccccc23)c1 [Compound 99, 1-(1-Methyl-1H-imidazol-5-yl)methyl-3-(morpholin-4-yl)carbonyl(naphthalen-1-yl)-1H-pyrrole]
23 | – | 100 | 70 | COCCN(C)C(=O)c1cn(Cc2cncn2CC2CCN(C(=O)OCc3ccccc3)CC2)nc1-c1cccc2ccccc12 [Compound 152, 1-[1-(1-Benzyloxycarbonyl-piperidin-4-ylmethyl)-1H-imidazol-5-ylmethyl]-4-[N-(2-methoxyethyl)-N-methyl]carbamoyl-3-(naphthalen-1-yl)-1H-pyrazole]
30 | – | 150 | 100 | COCCN(C)C(=O)c1cn(Cc2cncn2CC2CCN(C(=O)OC)CC2)nc1-c1cccc2ccccc12 [Compound 153, 1-[1-(1-Methoxycarbonylpiperidin-4-ylmethyl)-1H-imidazole-5-ylmethyl]-4-[N-(2-methoxyethyl)-N-methyl]-carbamoyl-3-(naphthalen-1-yl)-1H-pyrazole]
30 | – | 150 | 200 | COCCN(C)C(=O)c1cn(Cc2cncn2Cc2ccc(Br)cc2)nc1-c1cccc2ccccc12 [Compound 154, 1-[1-(4-Bromobenzyl)-1H-imidazol-5-ylmethyl]-4-[N-(2-methoxyethyl)-N-methyl]-carbamoyl-3-(naphthalen-1-yl)-1H-pyrazole]
300 | – | 1200 | 4000 | COC(=O)N1CCC(Cn2cncc2Cn2cc(C(=O)N3CCOCC3)c(-c3cccc4ccccc34)n2)CC1 [Compound 159]

Molecule | IC50 (Ras farnesyl transferase [1]) [nM] | IC50 (Ras farnesyl transferase [2]) [nM] | IC50 (Ras farnesyl transferase [3]) [nM] | IC50 (Ras farnesyl transferase [4]) [nM]
1-[1-(4-Methoxybenzyl)-1H-imidazol-5-yl]methyl-3-[N-(2-methoxyethyl)-N-methyl]carbamoyl-4-(naphthalen-1-yl)-1H-pyrrole [Compound 129] | 3 | 10000 to 50000 | 25 | 4
CN1CCN(C(=O)c2cn(Cc3cncn3Cc3ccc4c(c3)OCO4)cc2-c2cccc3ccccc23)CC1 [Compound 3, 1-[1-(3,4-Methylenedioxybenzyl)-1H-imidazol-5-ylmethyl]-3-(4-methylpiperazin-1-yl)carbonyl-4-(naphthalen-1-yl)-1H-pyrrole] | 1 | 15000 | 25 | 2.4
